Legend:
[1] = tested on: IL-8 production by Caco-2 cells; assay: Effect of promoting IL-8 production by Caco-2 cells (sandwich ELISA of culture supernatants); type: cell-based, human; settings: compounds at final concentration 100 μg/ml; 6-hour culture, then 12 hours in additive-free media; differentiated Caco-2 cells; significant difference P<0.01
Procedure: Caco-2 cells (human colon cancer-derived cell line; American Type Culture Collection, Rockville, Md., U.S.A.) were used as small-intestinal epithelial cell models to evaluate the influence of peppermint, dokudami (houttuynia herb), and licorice extracts on IL-8 production by the cells.
(§1) The Caco-2 cells were subcultured in 24-well plates. The resulting cells were cultured at 37° C. for 14 days under 5% CO2 conditions and thereby differentiated into small-intestinal epithelioid cells. Culture media used were DMEM media (SIGMA Corp.) containing 10% fetal calf serum, 1% non essential amino acid solution, 2% glutamine, 100 U/ml penicillin, and 100 μg/ml streptomycin. A peppermint extract obtained in Example 1, a dokudami (houttuynia herb) extract obtained in Example 2, and a licorice extract obtained in Example 3 were added at each final concentration of 100 μg/ml to the media, and the cells were cultured therein. After 6-hour culture, the media were replaced with additive-free media, followed by additional culture for 12 hours. The resulting culture supernatants were subjected to sandwich ELISA assay (Eckmann, L., et al., Gastroenterology, 105, 1689-1697, 1993) to quantify the amount of IL-8 in the culture supernatants.
Caco-2 cells (human colon cancer-derived cell line; American Type Culture Collection, Rockville, Md., U.S.A.) were used as small-intestinal epithelial cell models to evaluate the influence of α-humulene, α-pinene, β-pinene and L-menthol on IL-8 production by the cells.
as §1, with “5% Co2” for “5% CO2”, “streptomycin. α-humulene (SIGMA Corp.), α-pinene (SIGMA Corp.), β-pinene (SIGMA Corp.),” for “streptomycin. A peppermint extract obtained in Example 1, a dokudami (houttuynia herb) extract obtained in Example 2,”, “and L-menthol (SIGMA Corp.)” for “and a licorice extract obtained in Example 3”, “media was” for “media were”, “assay” for “assay (Eckmann, L., et al., Gastroenterology, 105, 1689-1697, 1993)”

Caco-2 cells = assay: Evaluation of cytotoxicity by LDH (lactate dehydrogenase) assay; type: cell-based; settings: 100 μg/ml; 24 hours; differentiated Caco-2 cells
Procedure: The cytotoxicity of peppermint, dokudami (houttuynia herb), licorice extracts was evaluated with Caco-2 cells. The Caco-2 cells differentiated into small-intestinal epithelioid cells in the same way as in Example 4 were cultured for 24 hours in media containing the peppermint, dokudami (houttuynia herb), and licorice extracts at each final concentration of 100 μg/ml. Subsequently, the media were removed, and the resulting cells were washed twice with PBS (phosphate buffered saline) (−) (Nissui Co., Ltd.). The cells were further supplemented with 700 μl of PBS (−) and left undisturbed at 37° C. for 2 hours. […] In summary, this assay is a method for quantifying cytotoxicity based on the activity of LDH released from dead cells by colormetrically determining formazan converted from a tetrazolium salt serving as a coloring reagent. The rate of free LDH (%) was calculated according to the equation below by using the LDH concentration in the collected PBS (−) as the amount of free LDH and the LDH concentration in the cell lysate as the amount of intracellular LDH. […]
The cytotoxicity of α-humulene was evaluated with Caco-2 cells. […] The rate of free LDH (6) was calculated according to the equation below by using the LDH concentration in the collected PBS (—) as the amount of free LDH and the LDH concentration in the cell lysate as the amount of intracellular LDH. […]

IL-8 production by the Caco-2 cells (relative IL-8 concentration to a control, FIG. 2) [1]	SMILES	Cytotoxicity (rate of free LDH vs control, FIG. 4) (Caco-2 cells)
remarkably promoted IL-8 production	CC(C)[C@@H]1CC[C@@H](C)C[C@H]1O [L-menthol]	–
remarkably promoted IL-8 production	C=C1CC[C@@H]2C[C@H]1C2(C)C [β-pinene]	–
remarkably promoted IL-8 production	CC1=CC[C@H]2C[C@@H]1C2(C)C [α-pinene]	–

SMILES	IL-8 production by the Caco-2 cells (relative IL-8 concentration to a control, FIG. 2) [1]	Cytotoxicity (rate of free LDH vs control, FIG. 4) (Caco-2 cells)
C/C1=C\CC/C(C)=C/CC(C)(C)/C=C/C1 [α-humulene]	remarkably promoted IL-8 production	no cytotoxicity
